Experiments:
[1] = target: Brd4^BD2 (Homo sapiens, UniProt O60885); assay: ITC binary titration, Brd4^BD2 into PROTAC; type: binding; conditions: Brd4^BD2 in syringe, PROTAC in cell
[2] = test system: cMyc; assay: cMyc depletion in MV4;11 (immunoblot); type: cell-based; conditions: 50 nM, 4 h
[3] = target: VCB / Brd4^BD2 ternary complex (Homo sapiens, UniProt O60885+P40337); assay: ITC ternary titration, VCB into Brd4^BD2–PROTAC complex; type: binding
[4] = target: T1, Brd4 (Homo sapiens, UniProt O60885); assay: Brd4 depletion in HL60 (immunoblot); type: cell-based; conditions: 50 nM, 4 h, HL60
T1 construct: endogenous in cells; host or cells: MV4;11; HL60

[5] = target: T1, Brd4; assay: Brd4 depletion in MV4;11 (immunoblot); type: cell-based; conditions: 50 nM, 4 h
[6] = target: VHL-EloC-EloB protein (VCB) (Homo sapiens, UniProt P40337); assay: ITC binary titration, VCB into PROTAC; type: binding; conditions: VCB in syringe, PROTAC in cell
[7] = ternary, VCB in syringe, Brd4^BD2–PROTAC in cell

stoichiometry N [1]: 0.804 ± 0.003 | ΔG [1]: –11.7 ± 0.4 kcal·mol^–1 | ΔH [1]: –10.0 ± 0.1 kcal·mol^–1 | –TΔS [1]: –1.71 ± 0.43 kcal·mol^–1 | α ([3]; cooperativity, ratio between binary and ternary Kd, Brd4^BD2): 0.2 | cooperativity (α) Brd4–BD2 ([3]; ternary complex formation with VCB and Brd4^BD2, as tabulated in Table 2): 0.15 | ΔpKd ± uncertainty ([3]; ternary vs binary, Brd4^BD2): –0.83 ± 0.10 | stoichiometry N [3, 7]: 1.07 ± 0.01 | ΔG [3, 7]: –8.33 ± 0.05 kcal·mol^–1 | ΔH [3, 7]: –7.02 ± 0.11 kcal·mol^–1 | –TΔS [3, 7]: –1.31 ± 0.12 kcal·mol^–1 | Brd4 depletion (%) HL60 [4]: –156% | Brd4 depletion (%) MV4;11 [5]: 11/11% | stoichiometry N [6]: 1.12 ± 0.01 | ΔG [6]: –9.46 ± 0.13 kcal·mol^–1 | ΔH [6]: –4.07 ± 0.07 kcal·mol^–1 | –TΔS [6]: –5.39 ± 0.14 kcal·mol^–1
SMILES: CC(=O)N1c2ccc(-c3ccc(C(=O)NCCOCCOCC(=O)N[C@H](C(=O)N4C[C@H](O)C[C@H]4C(=O)NCc4ccc(-c5scnc5C)cc4)C(C)(C)C)cc3)cc2[C@H](Nc2ccc(Cl)cc2)C[C@@H]1C [compound 8, (2S,4R)-1-((S)-1-(4-((2S,4R)-1-Acetyl-4-((4-chlorophenyl)amino)-2-methyl-1,2,3,4-tetrahydroquinolin-6-yl)phenyl)-12-(tert-butyl)-1,10-dioxo-5,8-dioxa-2,11-diazatridecan-13-oyl)-4-hydroxy-N-(4-(4-methylthiazol-5-yl)benzyl)pyrrolidine-2-carboxamide]
cMyc depletion (%) MV4;11 [2]: 11/11%
